# Assay results: patent US11008323B2, “Substituted tricyclic 1,4-benzodiazepinone derivatives as allosteric modulators of group II metabotropic glutamate receptors” (Domain Therapeutics, priority 2015, dated 2021)
# Counter-ions that a name gives are not always drawn.
# Biological target: T1, human mGluR3 (hmGluR3) (Homo sapiens, UniProt Q14832)
# T1 construct: expressed in transfected cells; host or cells: HEK-293 cells, transient co-transfection by electroporation
# Assay: Human mGluR3 positive allosteric modulator evaluation using Ca++ functional assay
# Assay type: cell-based
# Conditions: hmGluR3 transiently over-expressed in HEK-293 cells; stimulated by EC50 glutamate concentration; intracellular Ca2+ (Fluo4AM, FLIPR Tetra)
# Summary of the method: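 Calcium flux (Fluo4, ex 485/em 525 nm) recorded first 10 min with compound alone, then 3 min after an EC50 glutamate challenge, giving agonist and PAM EC50 from 20-concentration sigmoidal fits. Receptor was transiently co-transfected in HEK-293 with chimeric G protein and glutamate transporters.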
# T1 sequence (Q14832 23-879): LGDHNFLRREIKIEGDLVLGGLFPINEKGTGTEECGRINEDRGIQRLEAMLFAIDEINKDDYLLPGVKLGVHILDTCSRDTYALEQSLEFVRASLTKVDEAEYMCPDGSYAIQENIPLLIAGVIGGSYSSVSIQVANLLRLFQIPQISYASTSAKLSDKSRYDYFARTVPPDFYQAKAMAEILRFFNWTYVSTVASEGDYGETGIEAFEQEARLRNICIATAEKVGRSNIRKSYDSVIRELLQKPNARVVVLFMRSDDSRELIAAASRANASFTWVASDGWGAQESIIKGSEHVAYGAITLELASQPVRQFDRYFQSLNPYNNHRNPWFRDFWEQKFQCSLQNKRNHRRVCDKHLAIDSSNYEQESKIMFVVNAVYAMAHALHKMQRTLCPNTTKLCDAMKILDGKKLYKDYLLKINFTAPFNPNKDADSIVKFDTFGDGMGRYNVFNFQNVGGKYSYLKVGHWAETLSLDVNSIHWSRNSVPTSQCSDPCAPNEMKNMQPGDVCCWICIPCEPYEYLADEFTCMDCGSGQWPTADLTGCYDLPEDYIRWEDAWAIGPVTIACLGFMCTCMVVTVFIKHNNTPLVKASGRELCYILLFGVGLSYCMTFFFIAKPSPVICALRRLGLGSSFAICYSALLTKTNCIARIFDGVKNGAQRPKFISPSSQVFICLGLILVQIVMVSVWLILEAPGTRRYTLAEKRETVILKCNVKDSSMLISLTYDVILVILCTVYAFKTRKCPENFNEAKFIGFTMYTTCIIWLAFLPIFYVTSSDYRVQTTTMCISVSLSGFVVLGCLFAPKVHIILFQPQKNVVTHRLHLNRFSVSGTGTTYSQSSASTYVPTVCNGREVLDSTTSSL
row,Compound,EC50
1,"CCCc1ncccc1-c1ccc2c(c1)-n1cccc1C(=O)N(C)C21CC1 [Example 61, 5-Methyl-9-(2-propylpyridin-3-yl)-spiro[benzo[f]pyrrolo[1,2-a][1,4]diazepine-6,1′-cyclopropan]-4(5H)-one]",< 100 nM
2,"Cc1ncccc1-c1ccc2c(c1)-n1nc(-c3ccccc3)cc1C(=O)N(C)C21CC1 [Example 125, 9-(2-Methyl-pyridin-3-yl)-5-methyl-2-phenyl-spiro[benzo[f]pyrazolo[1,5-a][1,4]diazepine-6,1′-cyclopropan]-4(5H)-one]",< 100 nM
3,Cc1cc2n(c1)-c1cc(-c3cccnc3C)ccc1C1(CC1)N(C)C2=O [Example 144],< 100 nM
4,"CN1C(=O)c2cccn2-c2cc(-c3cnc(N)c(C(F)(F)F)c3)ccc2C12CC2 [Example 40, 5-Methyl-9-(6-amino-5-trifluoromethyl-pyridin-3-yl)-spiro[benzo[f]pyrrolo[1,2-a][1,4]diazepine-6,1′-cyclopropan]-4(5H)-one]",> 1000 nM
5,Cc1ncccc1-c1ccc2c(c1)-n1cc(-c3ccncc3)cc1C(=O)N(C)C21CC1 [Example 145],< 100 nM
6,"CN(C)c1ncccc1-c1ccc2c(c1)-n1cc(-c3ccccc3)cc1C(=O)N(C)C21CC1 [Example 119, 5-Methyl-2-phenyl-9-(2-dimethylamino-pyridin-3-yl)-spiro[benzo[f]pyrrolo[1,2-a][1,4]diazepine-6,1′-cyclopropan]-4(5H)-one]",> 1000 nM
7,"Cc1ncccc1-c1ccc2c(c1)-n1cc(-c3ccccc3)cc1C(=O)N(C)C21CC1 [Example 95, 5-Methyl-2-phenyl-9-(2-methyl-pyridin-3-yl)-spiro[benzo[f]pyrrolo[1,2-a][1,4]diazepine-6,1′-cyclopropan]-4(5H)-one]",< 100 nM
8,"Cc1ncccc1-c1ccc2c(c1)-n1ccnc1C(=O)N(C)C2 [Example 216, 5-Methyl-9-(2-methylpyridin-3-yl)-5,6-dihydro-4H-benzo[f]imidazo[1,2-a][1,4]diazepin-4-one]",> 1000 nM
9,"CN(C)c1ccc(-c2ccc3c(c2)-n2cc(-c4ccccc4)cc2C(=O)N(C)C32CC2)cn1 [Example 114, 5-Methyl-2-phenyl-9-(6-dimethylamino-pyridin-3-yl)-spiro[benzo[f]pyrrolo[1,2-a][1,4]diazepine-6,1′-cyclopropan]-4(5H)-one]",< 100 nM
10,"CN1C(=O)c2cc(-c3ccccc3)cn2-c2cc(-c3cccnc3)ccc2C12CC2 [Example 93, 5-Methyl-2-phenyl-9-pyridin-3-yl-spiro[benzo[f]pyrrolo[1,2-a][1,4]diazepine-6,1′-cyclopropan]-4(5H)-one]",< 100 nM
11,"CN1C(=O)c2cccn2-c2cc(Br)ccc2C12CC2 [Example 1, 9-Bromo-5-methyl-spiro[benzo[f]pyrrolo[1,2-a][1,4]diazepine-6,1′-cyclopropan]-4(5H)-one]",100 to 1000 nM
12,"CN1C(=O)c2cc(-c3ccccc3)nn2-c2cc(-c3ccc(N)nc3)ccc2C12CC2 [Example 127, 9-(6-Amino-pyridin-3-yl)-5-methyl-2-phenyl-spiro[benzo[f]pyrazolo[1,5-a][1,4]diazepine-6,1′-cyclopropan]-4(5H)-one]",< 100 nM
13,Cc1ncccc1-c1ccc2c(c1)-n1cc(-c3cccc(Cl)c3)cc1C(=O)N(C)C21CC1 [Example 148],100 to 1000 nM

# System: not given
# Assay: not given
# Conditions: not given
row,Compound,melting point
1,"Cc1ccc(-c2ccc3c(c2)-n2cc(-c4ccccc4)cc2C(=O)N(C)C32CC2)c(C)n1 (as salt: hydrochloride) [Example 107, 5-Methyl-2-phenyl-9-(2,6-dimethyl-pyridin-3-yl)-spiro[benzo[f]pyrrolo[1,2-a][1,4]diazepine-6,1′-cyclopropan]-4(5H)-one]",206 to 214 °C
2,"CN1C(=O)c2cc(-c3ccccc3)cn2-c2cc(-c3ccccn3)ccc2C12CC2 (as salt: hydrochloride) [Example 111, 5-Methyl-2-phenyl-9-(pyridin-2-yl)-spiro[benzo[f]pyrrolo[1,2-a][1,4]diazepine-6,1′-cyclopropan]-4(5H)-one]",185 to 198 °C
3,"Cc1cc(-c2ccc3c(c2)-n2nc(-c4ccccc4)cc2C(=O)N(C)C32CC2)cc(C)n1 (as salt: hydrochloride) [Example 121, 9-(2,6-Dimethyl-pyridin-4-yl)-5-methyl-2-phenyl-spiro[benzo[f]pyrazolo[1,5-a][1,4]diazepine-6,1′-cyclopropan]-4(5H)-one]",> 250 °C
4,"Cc1ncccc1-c1ccc2c(c1)-n1nccc1C(=O)N(C)C2 (as salt: hydrochloride) [Example 217, 5-Methyl-9-(2-methylpyridin-3-yl)-5,6-dihydro-4H-benzo[f]pyrazolo[1,5-a][1,4]diazepin-4-one]",120 to 140 °C
5,"Cc1ccc(-c2ccc3c(c2)-n2cc(-c4ccccc4)cc2C(=O)N(C)C32CC2)cn1 (as salt: hydrochloride) [Example 103, 5-Methyl-2-phenyl-9-(6-methyl-pyridin-3-yl)-spiro[benzo[f]pyrrolo[1,2-a][1,4]diazepine-6,1′-cyclopropan]-4(5H)-one]",200 to 215 °C
6,"Cc1cc(-c2ccc3c(c2)-n2nc(-c4ccccc4)cc2C(=O)N(C)C32CC2)ccn1 (as salt: hydrochloride) [Example 122, 9-(2-Methyl-pyridin-4-yl)-5-methyl-2-phenyl-spiro[benzo[f]pyrazolo[1,5-a][1,4]diazepine-6,1′-cyclopropan]-4(5H)-one]",> 250 °C
7,"Cc1ncccc1-c1ccc2c(c1)-n1cc(-c3ccccc3)nc1C(=O)N(C)C21CC1 (as salt: hydrochloride) [Example 140, 9-(2-Methyl-pyridin-3-yl)-5-methyl-2-phenyl-spiro[benzo[f]imidazo[1,2-a][1,4]diazepine-6,1′-cyclopropan]-4(5H)-one]",235 to 240 °C
8,"CN1C(=O)c2cc(-c3ccccc3)cn2-c2cc(-c3ccncc3)ccc2C12CC2 (as salt: hydrochloride) [Example 102, 5-Methyl-2-phenyl-9-(pyridin-4-yl)-spiro[benzo[f]pyrrolo[1,2-a][1,4]diazepine-6,1′-cyclopropan]-4(5H)-one]",220 to 230 °C
9,"Cc1ncccc1-c1ccc2c(c1)-n1ccnc1C(=O)N(C)C2 (as salt: hydrochloride) [Example 216, 5-Methyl-9-(2-methylpyridin-3-yl)-5,6-dihydro-4H-benzo[f]imidazo[1,2-a][1,4]diazepin-4-one]",210 to 230 °C
10,"CNc1ccc(-c2ccc3c(c2)-n2cc(-c4ccccc4)cc2C(=O)N(C)C32CC2)cn1 (as salt: hydrochloride) [Example 118, 5-Methyl-2-phenyl-9-(6-methylamino-pyridin-3-yl)-spiro[benzo[f]pyrrolo[1,2-a][1,4]diazepine-6,1′-cyclopropan]-4(5H)-one]",> 250 °C
11,"Cc1ncccc1-c1ccc2c(c1)-n1cc(-c3ccccc3)nc1C(=O)N(C)C2 (as salt: hydrochloride) [Example 166, 5-Methyl-9-(2-methylpyridin-3-yl)-2-phenyl-5,6-dihydro-4H-benzo[f]imidazo[1,2-a][1,4]diazepin-4-one]",240 to 245 °C
12,CCc1ncccc1-c1ccc2c(c1)-n1cc(-c3ccnn3C)cc1C(=O)N(C)C21CC1 (as salt: hydrochloride) [Example 163],187 to 192 °C
13,Cc1ncccc1-c1ccc2c(c1)-n1cc(C(F)F)cc1C(=O)N(C)C21CC1 (as salt: hydrochloride) [Example 201],240 to 250 °C
14,"Cc1ncccc1-c1ccc2c(c1)-n1nc(-c3ccccc3)cc1C(=O)N(C)C21CC1 (as salt: hydrochloride) [Example 125, 9-(2-Methyl-pyridin-3-yl)-5-methyl-2-phenyl-spiro[benzo[f]pyrazolo[1,5-a][1,4]diazepine-6,1′-cyclopropan]-4(5H)-one]",185 to 206 °C
15,"CCc1ncccc1-c1ccc2c(c1)-n1cccc1C(=O)N(C)C21CC1 (as salt: hydrochloride) [Example 24, 5-Methyl-9-(2-ethylpyridin-3-yl)-spiro[benzo[f]pyrrolo[1,2-a][1,4]diazepine-6,1′-cyclopropan]-4(5H)-one]",136 to 143 °C
16,"CN(C)c1ccc2c(c1)-n1cc(-c3ccccc3)cc1C(=O)N(C)C21CC1 (as salt: hydrochloride) [Example 115, 9-Dimethylamino-5-methyl-2-phenyl-spiro[benzo[f]pyrrolo[1,2-a][1,4]diazepine-6,1′-cyclopropan]-4(5H)-one]",160 to 170 °C
17,"[2H]C([2H])([2H])N1C(=O)c2cc(C(=O)O)cn2-c2cc(-c3ccc(F)nc3)ccc2C12CC2 [Example 178, 5-(Methyl-d3)-9-(6-fluoro-pyridin-3-yl)-4-oxo-4,5-dihydrospiro[benzo[f]pyrrolo[1,2-a][1,4]diazepine-6,1′-cyclopropane]-2-carboxylic acid]",> 250 °C
18,"Cc1ncccc1-c1ccc2c(c1)-n1cncc1C(=O)N(C)C2 (as salt: hydrochloride) [Example 215, 5-Methyl-9-(2-methylpyridin-3-yl)-5,6-dihydro-4H-benzo[f]imidazo[1,5-a][1,4]diazepin-4-one]",158 to 170 °C
19,"Cc1ncccc1-c1cc2c(cc1F)C1(CC1)N(C)C(=O)c1cccn1-2 (as salt: hydrochloride) [Example 77, 8-Fluoro-5-methyl-9-(2-methyl-pyridin-3-yl)-spiro[benzo[f]pyrrolo[1,2-a][1,4]diazepine-6,1′-cyclopropan]-4(5H)-one]",200 to 210 °C
20,"CN1C(=O)c2cccn2-c2cc(-c3ccc4nccn4c3)ccc2C12CC2 (as salt: hydrochloride) [Example 41, 5-Methyl-9-(imidazo[1,2-a]pyridin-6-yl)-spiro[benzo[f]pyrrolo[1,2-a][1,4]diazepine-6,1′-cyclopropan]-4(5H)-one]",> 250 °C
21,Cc1ncccc1-c1ccc2c(c1)-n1cc(C3CC3)cc1C(=O)N(C)C21CC1 (as salt: hydrochloride) [Example 155],190 to 198 °C
